According to US20260345596A1, “TREATMENT OF LOCALLY ADVANCED OR METASTATIC UROTHELIAL CARCINOMA WITH ERDAFINITIB” (priority 2023, published 2026):

Experiment: Study BLC3001 (NCT03390504, THOR) Cohort 1: safety, adverse events, laboratory abnormalities and exposure
Conditions: for Central serous retinopathy / Chorioretinopathy / Detachment of macular retinal pigment epithelium / Detachment of retinal pigment epithelium / Eye disorders (excluding central serous retinopathy) / Macular detachment / Nail disorders / Retinopathy / Skin disorders / Subretinal fluid: adverse events of interest; for Hematuria / Hyponatremia / Urinary tract infection: serious adverse events, any cause

COc1cc(OC)cc(N(CCNC(C)C)c2ccc3ncc(-c4cnn(C)c4)nc3c2)c1 [Erdafitinib, N-(3,5-dimethoxyphenyl)-N′-(1-methylethyl)-N-[3-(1-methyl-1H-pyrazol-4-yl)quinoxalin-6-yl]ethane-1,2-diamine]
8 (5.9) no. (%): Anemia (Grade 1, treatment-related) | Constipation (Grade 1, treatment-related) | Onychomadesis (Grade 1, treatment-related) | Central serous retinopathy (Grade 2) | Alanine aminotransferase increased (Grade 2, treatment-emergent) | Dry mouth (Grade 2, treatment-emergent) | Dysgeusia (Grade 2, treatment-emergent) | Fatigue (Grade 2, treatment-emergent) | Nausea (Grade 2, treatment-emergent) | Dry mouth (Grade 2, treatment-related) | Dysgeusia (Grade 2, treatment-related) | Onycholysis (Grade ≥3, treatment-emergent)
32 (23.7) no. (%): Stomatitis (Grade 2, treatment-emergent)
4 (3.0) no. (%): Subretinal fluid (Grade 1) | Asthenia (Grade 1, treatment-related) | Alopecia (Grade 2, treatment-emergent) | Alopecia (Grade 2, treatment-related) | Anemia (Grade 2, treatment-related) | Constipation (Grade 2, treatment-related) | Alanine aminotransferase increased (Grade ≥3, treatment-emergent) | Decreased appetite (Grade ≥3, treatment-emergent) | Diarrhea (Grade ≥3, treatment-emergent) | Alanine aminotransferase increased (Grade ≥3, treatment-related) | Anemia (Grade ≥3, treatment-related)
2 (1.5) no. (%): Macular detachment (Grade 1) | Detachment of retinal pigment epithelium (Grade 2) | Retinopathy (Grade 2) | Hematuria (Grade 2) | Detachment of retinal pigment epithelium (Grade ≥3) | Asthenia (Grade ≥3, treatment-emergent) | Dry skin (Grade ≥3, treatment-emergent) | Nausea (Grade ≥3, treatment-emergent) | Onychomadesis (Grade ≥3, treatment-emergent)
15 (11.1) no. (%): Decreased appetite (Grade 1, treatment-related) | Weight decreased (Grade 2, treatment-emergent) | Nail disorders (Grade ≥3)
11 (8.1) no. (%): Stomatitis (Grade ≥3, treatment-emergent)
24 (17.8) no. (%): Constipation (Grade 1, treatment-emergent)
18 (13.3) no. (%): Decreased appetite (Grade 1, treatment-emergent) | Alanine aminotransferase increased (Grade 1, treatment-related) | Aspartate aminotransferase increased (Grade 1, treatment-related)
16 (11.9) no. (%): Skin disorders (Grade ≥3)
13 (9.6) no. (%): Palmar-plantar erythrodysesthesia syndrome (Grade ≥3, treatment-emergent)
12 (8.9) no. (%): Central serous retinopathy (Grade 1) | Fatigue (Grade 1, treatment-emergent) | Weight decreased (Grade 1, treatment-emergent) | Fatigue (Grade 1, treatment-related) | Asthenia (Grade 2, treatment-emergent) | Constipation (Grade 2, treatment-emergent)
0 no. (%): Detachment of macular retinal pigment epithelium (Grade 1) | Retinopathy (Grade 1) | Hematuria (Grade 1) | Hyponatremia (Grade 1) | Urinary tract infection (Grade 1) | Neutropenia (Grade 1, treatment-emergent) | Neutropenia (Grade 1, treatment-related) | Detachment of macular retinal pigment epithelium (Grade 2) | Macular detachment (Grade 2) | Hyponatremia (Grade 2) | Urinary tract infection (Grade 2) | Neutropenia (Grade 2, treatment-emergent) | Neutropenia (Grade 2, treatment-related) | Chorioretinopathy (Grade ≥3) | Macular detachment (Grade ≥3) | Retinopathy (Grade ≥3) | Subretinal fluid (Grade ≥3) | Constipation (Grade ≥3, treatment-emergent) | Dry eye (Grade ≥3, treatment-emergent) | Dry mouth (Grade ≥3, treatment-emergent) | Fatigue (Grade ≥3, treatment-emergent) | Neutropenia (Grade ≥3, treatment-emergent)
20 (14.8) no. (%): Dry eye (Grade 1, treatment-emergent) | Stomatitis (Grade 1, treatment-related)
23 (17.0) no. (%): Dry skin (Grade 1, treatment-emergent)
17 (12.6) no. (%): Eye disorders (excluding central serous retinopathy) (Grade 2) | Onychomadesis (Grade 2, treatment-emergent) | Onychomadesis (Grade 2, treatment-related)
70 (51.9) no. (%): Hyperphosphatemia (Grade 1, treatment-emergent) | Hyperphosphatemia (Grade 1, treatment-related)
14 (10.4) no. (%): Decreased appetite (Grade 2, treatment-emergent) | Onycholysis (Grade 2, treatment-emergent) | Onycholysis (Grade 2, treatment-related)
19 (14.1) no. (%): Dry eye (Grade 1, treatment-related)
22 (16.3) no. (%): Stomatitis (Grade 1, treatment-emergent) | Dry skin (Grade 1, treatment-related) | Palmar-plantar erythrodysesthesia syndrome (Grade 2, treatment-emergent) | Palmar-plantar erythrodysesthesia syndrome (Grade 2, treatment-related)
9 (6.7) no. (%): Onycholysis (Grade 1, treatment-emergent) | Onychomadesis (Grade 1, treatment-emergent) | Onycholysis (Grade 1, treatment-related)
25 (18.5) no. (%): Nail disorders (Grade 1) | Dysgeusia (Grade 1, treatment-related)
27 (20.0) no. (%): Alopecia (Grade 1, treatment-related) | Diarrhea (Grade 2, treatment-related)
10 (7.4) no. (%): Anemia (Grade 1, treatment-emergent) | Nausea (Grade 1, treatment-emergent) | Decreased appetite (Grade 2, treatment-related) | Anemia (Grade ≥3, treatment-emergent)
44 (32.6) no. (%): Dry mouth (Grade 1, treatment-related)
45 (33.3) no. (%): Dry mouth (Grade 1, treatment-emergent)
1 (0.7) no. (%): Subretinal fluid (Grade 2) | Detachment of macular retinal pigment epithelium (Grade ≥3) | Alopecia (Grade ≥3, treatment-emergent) | Dysgeusia (Grade ≥3, treatment-emergent) | Alopecia (Grade ≥3, treatment-related)
50 (37.0) no. (%): Nail disorders (Grade 2)
21 (15.6) no. (%): Aspartate aminotransferase increased (Grade 1, treatment-emergent)
70%: Central serous retinopathy events resolved by clinical cutoff (16 of 23 patients, any grade)
5 (3.7) no. (%): Chorioretinopathy (Grade 1) | Aspartate aminotransferase increased (Grade 2, treatment-emergent) | Aspartate aminotransferase increased (Grade 2, treatment-related)
71%: Ongoing central serous retinopathy events of grade 1 (5 of 7 ongoing)
6 (4.4) no. (%): Asthenia (Grade 1, treatment-emergent) | Palmar-plantar erythrodysesthesia syndrome (Grade 1, treatment-emergent) | Nausea (Grade 1, treatment-related) | Palmar-plantar erythrodysesthesia syndrome (Grade 1, treatment-related) | Dry skin (Grade 2, treatment-emergent) | Asthenia (Grade 2, treatment-related) | Dry skin (Grade 2, treatment-related) | Fatigue (Grade 2, treatment-related) | Urinary tract infection (Grade ≥3)
49 (36.3) no. (%): Diarrhea (Grade 1, treatment-emergent)
37 (27.4) no. (%): Eye disorders (excluding central serous retinopathy) (Grade 1)
3 (2.2) no. (%): Detachment of retinal pigment epithelium (Grade 1) | Chorioretinopathy (Grade 2) | Dry eye (Grade 2, treatment-emergent) | Dry eye (Grade 2, treatment-related) | Central serous retinopathy (Grade ≥3) | Eye disorders (excluding central serous retinopathy) (Grade ≥3) | Hematuria (Grade ≥3) | Hyponatremia (Grade ≥3) | Aspartate aminotransferase increased (Grade ≥3, treatment-emergent) | Weight decreased (Grade ≥3, treatment-emergent)
29 (21.5) no. (%): Alopecia (Grade 1, treatment-emergent) | Hyperphosphatemia (Grade 2, treatment-related)
27 (20) no. (%): Skin disorders (Grade 1)
31 (23.0) no. (%): Skin disorders (Grade 2) | Diarrhea (Grade 2, treatment-emergent) | Hyperphosphatemia (Grade 2, treatment-emergent) | Stomatitis (Grade 2, treatment-related)
7 (5.2) no. (%): Alanine aminotransferase increased (Grade 2, treatment-related) | Nausea (Grade 2, treatment-related) | Hyperphosphatemia (Grade ≥3, treatment-emergent)
28 (20.7) no. (%): Alanine aminotransferase increased (Grade 1, treatment-emergent) | Dysgeusia (Grade 1, treatment-emergent)
43 (31.9) no. (%): Diarrhea (Grade 1, treatment-related)
